From PubChem BioAssay (NCI)
Several values for one entry are separate records, joined by “and”; a condition that tells them apart may be missing. Equal entries are not always repeated.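 Each compound was tested at five concentrations against cells in 96-well plates for 48 hours. GI50 is the concentration that inhibits growth by half. The concentration for full growth arrest is given as TGI.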

tested on: XF 498 CNS; test: NCI anticancer screen, dose series, 48 h

Question: How did the TGI turn out when `CC(=O)NC(CCCNC(=O)N(C)N=O)C(=O)NCc1ccccc1` (centres undefined) was run?
Answer: The TGI was over 100 µM.

Question: Which results are given for `N=S(c1ccccc1[N+](=O)[O-])c1ccccc1[N+](=O)[O-]`?
Answer: GI50: 4.84 µM and 2.14 µM; TGI: 11.5 µM and 6.15 µM

Question: For `COC(=O)/C=C1\CCC2[C@@H](C(=O)CC3[C@]2(C)CCC[C@@]3(C)C(=O)OC)C1C` (some centres undefined), which TGI is on record?
Answer: Its TGI is 28 µM.

Question: How did the TGI turn out when `Cc1ccc(NC(=O)C2C3C=CC(O3)C2C(=O)O)cc1` (centres undefined) was run?
Answer: The TGI was over 100 µM.

Question: With `CCc1cccc(C(C)C)c1NC(=O)/C(=N\NC(N)=O)C(C(=O)OC)c1cnc2ccccc2n1` (centres undefined) as the compound, how does the TGI read?
Answer: The TGI was over 100 µM.

Question: `N#C/C(c1nc2ccccc2[nH]1)=c1\s/c(=C/c2ccccc2)c(=O)n1-c1ccccc1` was tested. Which TGI did it give?
Answer: Its TGI is over 100 µM.

Question: How did the TGI turn out when `Cc1cc(Cl)ccc1NC(=O)/C(=N\NC(C)(C)C)C(C#N)c1nc(-c2ccc([N+](=O)[O-])cc2)cs1` (centres undefined) was run?
Answer: Its TGI is over 100 µM.

Question: `CC(=O)NC(CCCCNCc1ccccc1)C(=O)NCc1ccccc1` (centres undefined) was tested. Which TGI did it give?
Answer: Its TGI is over 100 µM.

Question: For `O=C1C(Cl)C(c2ccccc2Cl)N1n1cnc2ccccc2c1=O` (centres undefined), which TGI is on record?
Answer: The TGI was over 100 µM.

Question: `O=C1/C(=C/c2ccccc2Cl)COc2ccc(Br)cc21` was tested. Which TGI did it give?
Answer: The TGI was over 100 µM.

Question: Which TGI does the source give for `CC(C)C1=Cc2ccc3c(c2C(=O)C1=O)CCCC3` here?
Answer: Its TGI is 5.53 µM.

Question: For `CCCCCCCCCCCCCCCCc1c(C(=O)OC)nc(NC#N)[nH]c1=O`, which TGI is on record?
Answer: Its TGI is over 25 µM.

Question: Which TGI does the source give for `CCOC(=O)C(C)NC(=O)NC12CC3CC(CC(F)(C3)C1)C2` (centres undefined) here?
Answer: Its TGI is 89.4 µM.

Question: Which TGI does the source give for `O=S1Nc2cccc(C(F)(F)F)c2S1` (centres undefined) here?
Answer: Its TGI is 98.7 µM.

Question: How did the TGI turn out when `CCOc1ccc(N(CC(=O)N2CC(=O)Nc3cc(C)c(C)cc32)C(C)=O)cc1` was run?
Answer: The TGI was over 100 µM.

Question: With `CC(C)N(C(=O)C12C3C4C5C3C1(C(=O)O)C5C42)C(C)C` (centres undefined) as the compound, how does the TGI read?
Answer: Its TGI is over 100 µM.

Question: `O=C1CCC2(c3ccc(Cl)cc3)Nc3ccccc3N12` (centres undefined) was tested. Which TGI did it give?
Answer: The TGI was over 100 µM.

Question: `CC1(O)CC2C(CC1SC1CC3C(CC1(C)O)C3(C)C)C2(C)C` (centres undefined) was tested. Which TGI did it give?
Answer: The TGI was over 100 µM.
